For assay [1], the system named is SDMA from PRMT5 activity in MDA-MB-231 cells. The experiment in a line: Cell-based assay of SDMA by western blotting (MTA-synergy in cultured cells). The conditions noted are these: Homo sapiens, MDA-MB-231, 96 h, read-out: IC50, inhibition of SDMA production. The source says: The above analysis highlighted three principles that should be considered to enhance PRMT5 inhibition by 11-2F analogs. (1) It is important to retain the quinoline ring backbone to maintain the positive cooperativity with MTA. (2) The pi-stacking interactions of Trp579 and Phe327 with the quinoline ring may be enhanced to keep the inhibitor properly oriented, which could be achieved by introducing small groups (-F, or -CH3, or -NH3^+) to the ring. (3) The cyclo-alkylated indole ring of 11-2F is relatively flexible and may be stabilized by introducing H-bonds or electrostatic interactions with the binding pocket, especially with the residues on the flexible loop. […] Three 11-2F analogs predicted to have higher potency introduce more interactions with the binding pockets (Table 2; Supplementary Figs. 6–8, and Supplementary Tables 5–7). […] In the binding pocket, the 2,4-di-NH2-quinazoline of 11-9 F forms H-bonds with E444, E435, and S439, and its aromatic ring is sandwiched between the sidechains of Phe327 and Trp579. […]
MDA-MB-231 cells were seeded at 1.0 × 10^6 cells/dish and allowed to adhere overnight. […] The protein concentrations were determined using the BCA Protein Assay kit (Pierce #23227). […] After three washes with the TBST buffer, the membrane was analyzed using ECL Western blotting detection reagents (Pierce #34096) and imaged in a ChemiDoc MP imaging system (Bio-Rad). […]
In general terms: Immunoblotting shows a protein as a band on a membrane.

The target of assay [2] is T1, PRMT5:MEP50 (Homo sapiens, UniProt O14744).
T1 construct: full-length human PRMT5 (residues 1–637, NP_006100); FLAG; made in house; host or cells: Sf9 insect cells (Bac-to-Bac baculovirus)
Nature of the assay: MTase-Glo methyltransferase enzymatic inhibition assay (methylation of H4 peptide). The following applies: 100 nM PRMT5:MEP50, 10 µM SAM, 2 µM histone H4 peptide (1-21), n = 3. It counts as biochemical.
Description: Recombinant PRMT5:MEP50 was purified to biochemical homogeneity from sf9 cells (Supplementary Fig. 1). Inhibition of PRMT5 activity (methylation of H4 peptide) was monitored by measuring luminescence from a MTase-Glow detection reagent.
PRMT5:MEP50 protein complex was prepared as described by Antonysamy, S., et al.[39]. Briefly, full-length human PRMT5 (residues 1–637, NP_006100) and human MEP50 (residues 2–342, NP_077007) were co-expressed in Sf9 cells using a Bac-to-Bac expression system (Invitrogen). The cells were harvested and lysed. […]
11-2 F was serially diluted by 5-fold from 500 µM to 6.4 nM in DMSO then added into reaction buffer (30 mM Tris-HCl at pH 7.4, 500 mM NaCl, 2 mM MgCl2, 2 mM TCEP, 0.1% (wt/vol) BSA and 0.01% (vol/vol) Tween-20) with final DMSO concentration at 5% (vol/vol). […] After shaking for 2 min and incubation at room temperature for 30 min, 20 µl room temperature MTase-Glo Detection Solution was added and mixed well before incubation for another 30 min and luminescence recording. Luminescence was measured in a Synergy Neo2 HTS multimode microplate reader (BioTek). […] Data are analyzed in GraphPad Prism 8. For inhibitor studies, IC50 was determined by nonlinear regression (curve fitting) using the equation for the sigmoidal dose response (variable slope).

Assay [3] addresses T1, PRMT5:MEP50. The experiment in a line: Surface plasmon resonance (SPR) binding study. How it is done: PRMT5:MEP50 protein complex was prepared as described by Antonysamy, S., et al.[39]. Briefly, full-length human PRMT5 (residues 1–637, NP_006100) and human MEP50 (residues 2–342, NP_077007) were co-expressed in Sf9 cells using a Bac-to-Bac expression system (Invitrogen). The cells were harvested and lysed. After removal of cell debris, supernatants were collected for FLAG-affinity chromatography (Sigma; A2220) and fractionated by size exclusion chromatography in a 10/300 Superose 6 column (GE Life Sciences). The purified PRMT5:MEP50 complex was characterized by SDS-PAGE and sedimentation velocity analytical ultracentrifugation (SV-AUC) using a ProteomeLab™XL-I system (Beckman Coulter; Supplementary Fig. 1). Protein samples were concentrated to 12 mg/mL in a buffer containing 10 mM HEPES at pH 7.5, 150 mM NaCl, 10% (vol/vol) glycerol and 2.0 mM DTT and were stored at −80 °C until the time of use.
Binding affinity measurements were conducted in a Reichert2SPR instrument (Ametek) at 25 °C. PRMT5:MEP50 proteins were directly immobilized onto a 500,000 Da carboxymethyl dextran sensor chip at pH 5.5 using a standard amine-coupling approach. The small molecule analyte (11-2 F as an example) was injected at a flow rate of 30 μL/min of different concentrations in the running buffer (10 mM HEPES pH 7.4, 150 mM NaCl, 3.0 mM EDTA, 0.005% v/v Tween-20, and 5% DMSO). The association and dissociation times were set to be 1 min. […] The dissociation time for 11-2 F in MTA-containing running buffer was elongated to be 3 min to achieve complete dissociation. Sensorogram data were processed using the TraceDrawer software package to calculate the equilibrium dissociation constant KD, the association rate constant kon and the dissociation rate constant koff.

SMILES strings stand for the structures. “And” between values parts separate entries of the source, which are not always exact repeats. Identical values can stand only once. Like-named read-outs stand apart in the source and are kept apart here.

T1 sequence (O14744 whole entry, the tested form may be a part): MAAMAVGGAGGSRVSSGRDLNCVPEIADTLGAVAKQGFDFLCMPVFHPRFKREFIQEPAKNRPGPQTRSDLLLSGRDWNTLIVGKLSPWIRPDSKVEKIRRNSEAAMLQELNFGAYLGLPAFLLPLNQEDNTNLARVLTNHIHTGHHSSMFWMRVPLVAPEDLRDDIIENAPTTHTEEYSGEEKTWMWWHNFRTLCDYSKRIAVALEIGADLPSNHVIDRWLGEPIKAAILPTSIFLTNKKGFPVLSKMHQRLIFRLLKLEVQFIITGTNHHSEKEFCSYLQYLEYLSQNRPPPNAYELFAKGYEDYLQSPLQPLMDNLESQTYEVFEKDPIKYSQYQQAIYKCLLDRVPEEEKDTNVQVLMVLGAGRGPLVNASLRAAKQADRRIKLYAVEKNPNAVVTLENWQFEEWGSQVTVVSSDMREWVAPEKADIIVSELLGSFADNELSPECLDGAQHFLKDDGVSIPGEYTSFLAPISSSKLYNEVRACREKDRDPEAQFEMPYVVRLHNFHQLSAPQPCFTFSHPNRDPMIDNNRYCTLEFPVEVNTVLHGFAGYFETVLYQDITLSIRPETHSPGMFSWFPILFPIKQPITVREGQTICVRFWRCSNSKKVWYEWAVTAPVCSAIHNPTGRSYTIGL
T1 sequence (Q9BQA1 2-342 partner limits assumed): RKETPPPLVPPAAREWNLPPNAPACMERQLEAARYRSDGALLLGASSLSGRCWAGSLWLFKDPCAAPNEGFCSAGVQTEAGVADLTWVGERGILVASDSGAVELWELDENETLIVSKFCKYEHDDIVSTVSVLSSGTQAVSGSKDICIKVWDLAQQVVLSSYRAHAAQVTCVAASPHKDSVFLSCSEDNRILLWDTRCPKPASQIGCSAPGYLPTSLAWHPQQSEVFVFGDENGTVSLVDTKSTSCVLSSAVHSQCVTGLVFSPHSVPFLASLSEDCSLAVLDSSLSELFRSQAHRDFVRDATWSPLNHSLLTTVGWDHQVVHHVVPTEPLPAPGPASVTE

As to `CCn1c2c(c3cc(C(=O)NCc4ccc5c(N)nc(N)nc5c4)ccc31)CCCC2` [11-9F, N-[(2′,4′-diaminoquinazoline)-7′-methyl]-[9-ethyl-5,6,7,8-tetrahydro-carbazole]-3-carboxamide], the IC50 in assay [1] (0 μM additional MTA (black trace)) turned out to be 32.4 µM; in assay [1] (5.0 μM MTA (red trace)), 2.4 µM.
For the compound `Nc1ccc2ccc(CNC(=O)c3ccc4c(c3)c3c(n4CCO)CCCC3)cc2n1` [11-2F, N-[(2′-aminoquinoline)-7′-methyl]-[9-(2-hydroxyethyl)-5,6,7,8-tetrahydro-carbazole]-3-carboxamide], the IC50 was approximately 0.73 µM in assay [2] (read-out: IC50, inhibition of PRMT5:MEP50 enzyme activity) and 0.73 ± 0.2 µM in assay [2] (read-out: IC50, inhibition of PRMT5 enzyme activity). Besides, in assay [3] (KD without MTA vs with 25 μM MTA), the “apparent positive coupling coefficient between 11-2F and MTA” value is given as ~ 166. Besides, the Kd in assay [3] (PRMT5:MEP50 saturated with 25 μM MTA) is ~0.082 µM and 0.0821 µM; in assay [3] (PRMT5:MEP50 saturated with 25 μM SAH), 1.6 µM and 1.63 µM; in assay [3] (PRMT5:MEP50 saturated with 25 μM SAM) it was 0.38 µM and 0.375 µM; in assay [3] (without MTA (no cofactor)), approximately 13.6 µM. The koff in assay [3] (saturated with 25 μM MTA) is 0.0202 s⁻¹; in assay [3] (saturated with 25 μM SAH), 0.112 s⁻¹; in assay [3] (saturated with 25 μM SAM), 0.019 s⁻¹; in assay [3] (without MTA (no cofactor)), 0.0844 s⁻¹. Besides, the on-rate (kon) in assay [3] (saturated with 25 μM MTA) amounted to 246000 M⁻¹ s⁻¹; in assay [3] (saturated with 25 μM SAH), 75700 M⁻¹ s⁻¹; in assay [3] (saturated with 25 μM SAM), 50700 M⁻¹ s⁻¹; in assay [3] (without MTA (no cofactor)), 6190 M⁻¹ s⁻¹.

One may read the IC50 as the concentration that gives 50% inhibition. One may read the Kd as the equilibrium constant for the complex coming apart. The low end stands for higher affinity, the high end for lower affinity. A word on the koff: it is the rate constant with which the complex falls apart. In general, kon refers to the rate constant with which the complex forms.

The values above are taken from PMC9530242, “Cryo-EM structure-based selection of computed ligand poses enables design of MTA-synergic PRMT5 inhibitors of better potency” (Communications Biology, 2022).
